± gives the expanded uncertainty stated by the source.
Columns and labels:
[1] = refractive index (Na D-line) (dimensionless); xn = mol fraction of the nth substance listed; settings: 101 kPa, Liquid, Standard Abbe refractometry
[2] = xn = mol fraction of the nth substance listed; settings: 101 kPa, Liquid; for speed of sound: Sing-around technique in a fixed-path interferometer; for mass density: Vibrating tube method

CCCC[N+]1(C)CCCC1.N#CN=C=[N-] [1-butyl-1-methylpyrrolidinium dicyanamide] + O
Settings | mass density, 288.15 K [kg/m3] | mass density, 298.15 K [kg/m3] | mass density, 308.15 K [kg/m3] | refractive index, 288.15 K | refractive index, 298.15 K | refractive index, 308.15 K | speed of sound, 288.15 K [m/s] | speed of sound, 298.15 K [m/s] | speed of sound, 308.15 K [m/s]
[1], x2 = 0 | – | – | – | 1.49968 ± 0.00063 | 1.49681 ± 0.00063 | 1.49392 ± 0.00064 | – | – | –
[1], x2 = 0.096 | – | – | – | 1.49811 ± 0.00061 | 1.49519 ± 0.00062 | 1.49222 ± 0.00062 | – | – | –
[1], x2 = 0.1277 | – | – | – | 1.49752 ± 0.00061 | 1.49459 ± 0.00061 | 1.49162 ± 0.00061 | – | – | –
[1], x2 = 0.2116 | – | – | – | 1.4957 ± 0.00058 | 1.49278 ± 0.00059 | 1.48982 ± 0.0006 | – | – | –
[1], x2 = 0.3077 | – | – | – | 1.49322 ± 0.00056 | 1.49032 ± 0.00058 | 1.4871 ± 0.00059 | – | – | –
[1], x2 = 0.3942 | – | – | – | 1.49044 ± 0.00054 | 1.48751 ± 0.00056 | 1.48432 ± 0.00059 | – | – | –
[1], x2 = 0.4952 | – | – | – | 1.48621 ± 0.00054 | 1.48329 ± 0.00055 | 1.47987 ± 0.00057 | – | – | –
[1], x2 = 0.5023 | – | – | – | 1.4858 ± 0.00054 | 1.48284 ± 0.00055 | 1.47973 ± 0.00055 | – | – | –
[1], x2 = 0.6047 | – | – | – | 1.4797 ± 0.00053 | 1.47674 ± 0.00054 | 1.47345 ± 0.00055 | – | – | –
[1], x2 = 0.6137 | – | – | – | 1.47901 ± 0.00052 | 1.4761 ± 0.00053 | 1.47289 ± 0.00054 | – | – | –
[1], x2 = 0.7061 | – | – | – | 1.47041 ± 0.00051 | 1.46748 ± 0.00052 | 1.46424 ± 0.00053 | – | – | –
[1], x2 = 0.7177 | – | – | – | 1.46905 ± 0.00051 | 1.46612 ± 0.00052 | 1.46281 ± 0.00054 | – | – | –
[1], x2 = 0.7571 | – | – | – | 1.46368 ± 0.00046 | 1.46078 ± 0.00052 | 1.45746 ± 0.00058 | – | – | –
[1], x2 = 0.8208 | – | – | – | 1.45158 ± 0.00046 | 1.4487 ± 0.0005 | 1.44577 ± 0.00057 | – | – | –
[1], x2 = 0.8468 | – | – | – | 1.44481 ± 0.00045 | 1.44172 ± 0.00051 | 1.43884 ± 0.00056 | – | – | –
[1], x2 = 0.9034 | – | – | – | 1.42419 ± 0.00043 | 1.42145 ± 0.00048 | 1.41909 ± 0.00077 | – | – | –
[1], x2 = 0.904 | – | – | – | 1.42386 ± 0.00043 | 1.42118 ± 0.00048 | 1.41891 ± 0.00077 | – | – | –
[1], x2 = 0.9492 | – | – | – | 1.39597 ± 0.00047 | 1.39362 ± 0.00046 | 1.39175 ± 0.00045 | – | – | –
[1], x2 = 0.9507 | – | – | – | 1.39472 ± 0.00046 | 1.39249 ± 0.00045 | 1.39055 ± 0.00045 | – | – | –
[1], x2 = 0.9517 | – | – | – | 1.3939 ± 0.00046 | 1.39161 ± 0.00045 | 1.3897 ± 0.00045 | – | – | –
[2], x2 = 0 | 1019.17 ± 1.1 | 1013.53 ± 1.1 | 1007.93 ± 1.1 | – | – | – | 1836.9 ± 2.3 | 1811.1 ± 2.3 | 1781.9 ± 2.3
[2], x2 = 0.096 | 1018.92 ± 0.94 | 1013.25 ± 0.93 | 1007.63 ± 0.91 | – | – | – | 1836.1 ± 2.1 | 1810.6 ± 2.1 | 1782.4 ± 2.1
[2], x2 = 0.1277 | 1018.84 ± 0.88 | 1013.16 ± 0.87 | 1007.52 ± 0.86 | – | – | – | 1835.8 ± 2.1 | 1810.4 ± 2.1 | 1783.1 ± 2.1
[2], x2 = 0.2116 | 1018.6 ± 0.73 | 1012.89 ± 0.72 | 1007.23 ± 0.71 | – | – | – | 1835.3 ± 2 | 1810.1 ± 2 | 1783.8 ± 2
[2], x2 = 0.3077 | 1018.31 ± 0.58 | 1012.56 ± 0.58 | 1006.85 ± 0.57 | – | – | – | 1835.6 ± 1.8 | 1810 ± 1.8 | 1784.2 ± 1.8
[2], x2 = 0.3942 | 1018.08 ± 0.47 | 1012.27 ± 0.46 | 1006.5 ± 0.45 | – | – | – | 1834.9 ± 1.7 | 1810 ± 1.7 | 1785.7 ± 1.7
[2], x2 = 0.4952 | 1017.78 ± 0.35 | 1011.89 ± 0.34 | 1006.03 ± 0.33 | – | – | – | 1835.1 ± 1.6 | 1810.8 ± 1.6 | 1786.7 ± 1.5
[2], x2 = 0.5023 | 1017.76 ± 0.34 | 1011.86 ± 0.33 | 1005.99 ± 0.33 | – | – | – | 1835.2 ± 1.6 | 1810.9 ± 1.5 | 1786.7 ± 1.5
[2], x2 = 0.6047 | 1017.45 ± 0.24 | 1011.42 ± 0.24 | 1005.42 ± 0.23 | – | – | – | 1835.9 ± 1.4 | 1811.8 ± 1.4 | 1788 ± 1.4
[2], x2 = 0.6137 | 1017.41 ± 0.23 | 1011.37 ± 0.23 | 1005.35 ± 0.22 | – | – | – | 1835.7 ± 1.4 | 1811.8 ± 1.4 | 1788 ± 1.4
[2], x2 = 0.7061 | 1016.91 ± 0.16 | 1010.72 ± 0.16 | 1004.54 ± 0.16 | – | – | – | 1832.9 ± 1.3 | 1809.6 ± 1.3 | 1786.1 ± 1.3
[2], x2 = 0.7177 | 1016.81 ± 0.16 | 1010.61 ± 0.15 | 1004.4 ± 0.15 | – | – | – | 1832 ± 1.3 | 1808.9 ± 1.3 | 1785.6 ± 1.3
[2], x2 = 0.7571 | 1016.39 ± 0.13 | 1010.13 ± 0.13 | 1003.86 ± 0.13 | – | – | – | 1827.3 ± 1.3 | 1804.9 ± 1.3 | 1782.1 ± 1.3
[2], x2 = 0.8208 | 1015.22 ± 0.1 | 1008.91 ± 0.1 | 1002.57 ± 0.1 | – | – | – | 1810.9 ± 1.2 | 1790.5 ± 1.2 | 1769.4 ± 1.2
[2], x2 = 0.8468 | 1014.46 ± 0.09 | 1008.19 ± 0.09 | 1001.84 ± 0.09 | – | – | – | 1798.5 ± 1.2 | 1779.7 ± 1.2 | 1756.5 ± 1.2
[2], x2 = 0.9034 | 1011.96 ± 0.07 | 1005.98 ± 0.07 | 999.84 ± 0.07 | – | – | – | 1750.6 ± 1.1 | 1738.3 ± 1.1 | 1724.2 ± 1.1
[2], x2 = 0.904 | 1011.92 ± 0.07 | 1005.93 ± 0.07 | 999.81 ± 0.07 | – | – | – | 1749.8 ± 1.1 | 1737.2 ± 1.1 | 1723.6 ± 1.1
[2], x2 = 0.9492 | 1008.27 ± 0.06 | 1003.12 ± 0.06 | 997.62 ± 0.06 | – | – | – | 1671.5 ± 1.1 | 1670.7 ± 1.1 | 1666.7 ± 1.1
[2], x2 = 0.9507 | 1008.1 ± 0.06 | 1002.99 ± 0.06 | 997.53 ± 0.06 | – | – | – | 1667.9 ± 1.1 | 1667.7 ± 1.1 | 1664.3 ± 1.1
[2], x2 = 0.9517 | 1007.98 ± 0.06 | 1002.91 ± 0.06 | 997.47 ± 0.06 | – | – | – | 1665.4 ± 1.1 | 1665.5 ± 1.1 | 1662.5 ± 1.1

— the NIST ThermoML archive (doi:10.1021/je201334p)
